Results on nine compounds are retold here after patent publication US11524962B2, “Substituted pyrrolo[2,3-d]pyrimidines as inhibitors of protein arginine methyl transferase 5 (PRMT5)” (PRELUDE THERAPEUTICS, INCORPORATED, priority 2017, dated 2022).

Structures are written as SMILES. Read-outs that look alike come from different tables or passages of the source.

The target in one assay is PRMT5/MEP50 complex (Homo sapiens (Human), UniProt O14744). The assay can be described thus: HotSpot Assay. The assay is classed as biochemical. On the procedure:
HotSpot Assay. Compounds were solubilized and 3-fold diluted in 100% DMSO. […] Standard reactions were performed in a total volume of 50 μl in assay buffer, with histone H2A (5 μM final) as substrate. To this was added the PRMT5/MEP50 complex diluted to provide a final assay concentration of 5 nM and the compounds were allowed to preincubate for 15 to 20 minutes at room temperature. The reaction was initiated by adding S-[3H-methyl]-adenosyl-L-methionine (PerkinElmer) to final concentration of 1 μM. Following a 60 minutes incubation at 30° C., the reaction was stopped by adding 100 μL of 20% TCA. Each reaction was spotted onto filter plate (MultiScreen FB Filter Plate, Millipore), and washed 5 times with PBS buffer, Scintillation fluid was added to the filter plate and read in a scintillation counter. IC50 values were determined by fitting the data to the standard 4 parameters with Hill Slope using GraphPad Prism software. This procedure generated the HotSpot data in Table 7.

Assay [1] concerns Symmetric Di-Methyl Arginine (sDMA) marks in Granta-519 cells. The assay can be described thus: sDMA Western blot / In Cell Western in Granta-519 cells. The assay is classed as cell-based. As to conditions: Homo sapiens. As for the experimental part: Compound titration and cell culture: Compounds were dissolved in DMSO to make 10 mM stock and 3-fold series dilutions were further conducted to make working stocks top at 1 mM. Granta-519 cells were maintained in PRMI 1640 (Corning Cellgro, Catalog #: 10-040-CV) supplemented with 10% v/v FBS (GE Healthcare, Catalog #: SH30910.03) and U-87 MG cells were maintained in DMEM (Corning Cellgro, Catalog #: 10-013-CV) with 10% FBS and 2 mM Glutamin (Corning Cellgro, Catalog #25005CV).
To determine enzyme inhibition IC50 values in Granta-519 and U-87 MG cells using Western Blot analysis. One day before experiment, Granta-519 cells were passaged to a density of 0.5×10^6 cells/ml. U-87 MG cells were trypsinized and 4×10^5 cells were seeded into 6-well plates and allow to grow overnight. The next day, Granta-519 cells were spun down at 1,500 rpm for 4 min, resuspend in fresh medium at 0.5×10^6 cells/ml and 3 mL of culture (1.5×10^6 cells) were seeded into 6 well plate. Eight-point, 3-fold serial dilutions of compound working stocks were added to cells (3 ul, 1:1,000 dilution, DMSO concentration was 0.1%; final top concentration at 1 uM) and incubated for 3 days. Cells incubated with DMSO was used as a vehicle control.
Cells were harvested 3 days later, resuspended in 15 uL PBS, lysed in 4% SDS, and homogenized by passing through homogenizer column (Omega Biotek, Catalog #: HCR003). Total protein concentrations were determined by BCA assay (ThermoFisher Scientific, Catalog #: 23225). Lysates were mixed with 5× Laemmli buffer and boiled for 5 min. Forty ug of total protein was separated on SDS-PAGE gels (Bio-Rad, catalog #: 4568083, 4568043), transferred to PVDF membrane, blocked with 5% dry milk (Bio-Rad, Catalog #: 1706404) in TBS with 0.1% v/v Tween 20 (TBST) for 1 hour at room temperature (RT), and incubated with primary antibodies (sDMA: Cell signaling, Catalog #: 13222, 1:3,000; β-Actin: sigma, Catalog #: 1:5,000) in 5% dry milk in TBST at 4° C. overnight. The next day, membranes were washed with TBST, 5×5 min, and incubated with HRP conjugated seconded antibody (GE Healthcare; Catalog #: NA934-1ML, NA931-1ML; 1:5,000) for 2 hours at RT, followed by 5×5 min washes with TBST, and incubation with ECL substrates (Bio-Rad, Catalog #: 1705061, 1705062). Chemiluminescent signal was captured with Fluochem HD2 imager (Proteinsimple). SmD3me2s bands were quantified by ImageJ. Signals were normalized to β-Actin and DMSO control. IC50 values were calculated using Graphpad Prism ([Inhibitor]vs. normalized response−Variable slope).
sDMA In Cell Western procedure (ICW): Granta-519 cells were passaged to a density of 0.5×10^6 cells/ml one day before experiments and allowed to grow overnight. The next day (day 0), cells were spun down at 1,500 rpm for 4 min, resuspended in fresh medium to 0.2×10^6 cells/ml and 100 uL of cells were added to 384-well plates using a Multidrop Combi Dispenser (ThermoFisher). A series of 9-point, 3-fold serial dilutions of compounds were prepared and dispensed into wells from a 1 mM stock solution using a TECAN digital dispenser (D300e) and the DMSO % concentration was normalized in each well to 0.1%. DMSO and 3 uM of reference compounds were used as negative (minimum inhibition) and positive (maximum inhibition) controls, respectively. After 3 days of incubation, cells were first resuspended and then 80 ul of cells were transferred to a Poly-D-lysine 384-well plate (Corning, Catalog #354663), followed by 30 minutes incubation at room temperature (RT) and 5 additional hours of incubation at 37° C. […]
A general note: Immunoblotting shows a protein as a band on a membrane.

[2] abbreviates: 72 h, Granta-519, 3 days, read-out: sDMA_Granta IC50.

Chain of PRMT5/MEP50 complex (O14744 whole entry): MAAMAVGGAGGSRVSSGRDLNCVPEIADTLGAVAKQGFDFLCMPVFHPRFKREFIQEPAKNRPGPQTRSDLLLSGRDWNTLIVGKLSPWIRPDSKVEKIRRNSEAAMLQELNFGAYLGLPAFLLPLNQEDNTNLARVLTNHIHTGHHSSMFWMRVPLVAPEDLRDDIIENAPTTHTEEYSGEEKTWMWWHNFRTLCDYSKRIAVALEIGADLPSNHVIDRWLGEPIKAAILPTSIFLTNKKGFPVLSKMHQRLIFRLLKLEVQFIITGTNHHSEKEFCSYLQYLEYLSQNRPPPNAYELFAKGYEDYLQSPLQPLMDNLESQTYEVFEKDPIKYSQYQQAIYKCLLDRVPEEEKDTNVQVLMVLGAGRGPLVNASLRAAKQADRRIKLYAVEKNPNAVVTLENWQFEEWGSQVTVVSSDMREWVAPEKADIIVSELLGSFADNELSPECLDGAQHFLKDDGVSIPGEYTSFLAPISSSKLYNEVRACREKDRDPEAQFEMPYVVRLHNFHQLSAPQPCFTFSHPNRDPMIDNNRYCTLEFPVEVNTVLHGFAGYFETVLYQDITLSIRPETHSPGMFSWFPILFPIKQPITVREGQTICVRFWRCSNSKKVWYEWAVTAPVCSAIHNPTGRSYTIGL
Chain of PRMT5/MEP50 complex (Q9BQA1 whole entry partner): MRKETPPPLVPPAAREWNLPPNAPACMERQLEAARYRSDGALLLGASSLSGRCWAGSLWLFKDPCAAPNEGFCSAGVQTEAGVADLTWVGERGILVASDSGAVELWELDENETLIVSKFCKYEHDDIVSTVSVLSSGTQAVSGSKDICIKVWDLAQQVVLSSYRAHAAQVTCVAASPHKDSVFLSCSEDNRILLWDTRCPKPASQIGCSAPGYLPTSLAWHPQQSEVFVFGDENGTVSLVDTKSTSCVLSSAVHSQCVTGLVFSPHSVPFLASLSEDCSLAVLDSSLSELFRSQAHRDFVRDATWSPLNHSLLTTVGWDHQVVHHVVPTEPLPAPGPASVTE

As usually defined, the IC50 is the concentration needed to halve the response being measured. Turning to `C[C@@](O)(c1ccc2c(c1)CC2)[C@H]1O[C@@H](n2ccc3c(N)ncnc32)[C@H](O)[C@@H]1O` [Example 1, (2R,3R,4S,5S)-2-(4-amino-7H-pyrrolo[2,3-d]pyrimidin-7-yl)-5-((R)-1-(bicyclo[4.2.0]octa-1(6),2,4-trien-3-yl)-1-hydroxyethyl)tetrahydrofuran-3,4-diol], the IC50 against PRMT5/MEP50 complex came out at 0.003 µM; in assay [1] (setting [2]), 0.022 µM; in assay [1] (Granta-519, initial testing, read-out: sDMS (Granta) IC50) it was 0.009 µM.
As for `Nc1ncnc2c1ccn2[C@@H]1O[C@H]([C@H](O)c2ccc3c(c2)CC3)[C@@H](O)[C@H]1O` [Example 2, (2R,3R,4S,5R)-2-(4-amino-7H-pyrrolo[2,3-d]pyrimidin-7-yl)-5-((R)-bicyclo[4.2.0]octa-1(6),2,4-trien-3-yl(hydroxy)methyl)tetrahydrofuran-3,4-diol], the results for the 50% inhibitory concentration (IC50) (against PRMT5/MEP50 complex; in assay [1] (setting [2])) were 0.002 µM and 0.02 µM, respectively.
Turning to `Nc1ncnc2c1c(F)cn2[C@@H]1O[C@H]([C@H](O)c2ccc3c(c2)CC3)[C@@H](O)[C@H]1O` [Example 6, (2R,3R,4S,5R)-2-(4-amino-5-fluoro-7H-pyrrolo[2,3-d]pyrimidin-7-yl)-5-((R)-bicyclo[4.2.0]octa-1(6),2,4-trien-3-yl(hydroxy)methyl)tetrahydrofuran-3,4-diol], the results for the half-inhibitory concentration (IC50) (against PRMT5/MEP50 complex; in assay [1] (setting [2])) were 0.0007 µM and 0.038 µM, respectively.
On to `Cc1ncnc2c1ccn2[C@@H]1O[C@H]([C@H](O)c2ccc3c(c2)CC3)[C@@H](O)[C@H]1O` [Example 11, (2R,3S,4R,5R)-2-((R)-bicyclo[4.2.0]octa-1(6),2,4-trien-3-yl(hydroxy)methyl)-5-(4-methyl-7H-pyrrolo[2,3-d]pyrimidin-7-yl)tetrahydrofuran-3,4-diol], for which the values for the concentration for half-maximal inhibition (IC50) (against PRMT5/MEP50 complex; in assay [1] (setting [2])) were 0.003 µM and 0.033 µM, respectively.
In the same order, the values of `Nc1ncnc2c1c(Br)cn2[C@@H]1O[C@H]([C@H](O)c2ccc3c(c2)CC3)[C@@H](O)[C@H]1O` [Example 36, (2R,3R,4S,5R)-2-(4-amino-5-bromo-7H-pyrrolo[2,3-d]pyrimidin-7-yl)-5-((R)-bicyclo[4.2.0]octa-1,3,5-trien-3-yl(hydroxy)methyl)tetrahydrofuran-3,4-diol] are 0.011 µM and 3.78 µM.
In the same order, the values of `Cc1ncnc2c1ccn2[C@@H]1O[C@H]([C@H](O)c2nc3c(s2)CCC3)[C@@H](O)[C@H]1O` [Example 52, (2S,3S,4R,5R)-2-((S)-(5,6-dihydro-4H-cyclopenta[d]thiazol-2-yl)(hydroxy)methyl)-5-(4-methyl-7H-pyrrolo[2,3-d]pyrimidin-7-yl)tetrahydrofuran-3,4-diol] are 0.009 µM and 1.7 µM.
In the same order, the values of `OCCc1ncnc2c1ccn2[C@@H]1O[C@H]([C@H](O)c2ccc3c(c2)CC3)[C@@H](O)[C@H]1O` [Example 53, (2R,3S,4R,5R)-2-((R)-bicyclo[4.2.0]octa-1,3,5-trien-3-yl(hydroxy)methyl)-5-(4-(2-hydroxyethyl)-7H-pyrrolo[2,3-d]pyrimidin-7-yl)tetrahydrofuran-3,4-diol] are 0.164 µM and 5.24 µM.
As for `CNc1ncnc2c1ccn2[C@@H]1O[C@H]([C@H](O)c2ccc3c(c2)CC3)[C@@H](O)[C@H]1O` [Example 54, (2R,3S,4R,5R)-2-((R)-bicyclo[4.2.0]octa-1(6),2,4-trien-3-yl(hydroxy)methyl)-5-(4-(methylamino)-7H-pyrrolo[2,3-d]pyrimidin-7-yl)tetrahydrofuran-3,4-diol], the IC50 in assay [1] (setting [2]) is 0.759 µM.
Same read-out and setting: with `O[C@@H]1[C@H](O)[C@@H]([C@H](O)c2ccc3c(c2)CC3)O[C@H]1n1ccc2c(Cl)ncnc21` [Example 56, (2R,3S,4R,5R)-2-((R)-bicyclo[4.2.0]octa-1(6),2,4-trien-3-yl(hydroxy)methyl)-5-(4-chloro-7H-pyrrolo[2,3-d]pyrimidin-7-yl)tetrahydrofuran-3,4-diol] the figure was 0.923 µM.
